Data reported in patent US4313937A, “Method for producing long-lasting analgesic effects of β-endorphin” (priority 1980, dated 1982).
Where “and” joins values, the source holds several entries; their conditions need not be identical. Equal values may be shown once. Entries after “also recorded” stand apart in the source; their conditions may differ.

Legend:
patient = conditions: infusion into the cerebral ventricle; cited from earlier work
[1] = system: man and laboratory animals; conditions: intravenously or intramuscularly administered; cited from earlier work
[2] = system: patients with chronic intractable pain; test: Clinical test of analgesia in patients with chronic intractable pain secondary to metastatic malignancies (visual pain scale); assay type: in vivo, man
Procedure: Twenty-three patients with chronic intractable pain in the back, chest, abdomen, rectum and/or thigh regions secondary to metastatic malignancies were selected for this test.
The protocol was explained to them, and informed consent was obtained. Systemic analgesics were withheld for at least 5 hours before administration of β-endorphin. Neurological examinations and electroencephalography (EEG) were performed immediately before and every 2 hours after the injection of β-endorphin. The visual pain scale ("Adv. Neurol.", 1974, 4, 281-283) was explained to each patient; baseline pain intensity was determined 30 min. before the injection.
β-Endorphin acetate used here was prepared to high purity according to the method described in the Biochem. Biophys. Res. Commun., 74, 248-255 (1977). β-Endorphin acetate, 3 mg (equivalent to 2.5 mg of dried free β-endorphin) with 150 mg of glucose and 3 ml of distilled water (in 8 patients, cases 1-8) or with 3 ml of physiological saline and no glucose (in 7 patients, cases 9-15), was injected into the subarachnoid space (cases 1-14) or epidural space (case 15) of the spinal cord by lumbar puncture between the 2nd and 3rd lumbar vertebrae. After the injection of β-endorphin acetate, the intensity of pain, vital signs, central-nervous-system examination, EEG, electrocardiogram (ECG), pulse rate, respiratory rate, blood-gas analysis, and body temperature were monitored. Simple behavioural parameters were also observed.
In a single-randomization design, three physicians administered successively β-endorphin acetate injection or physiological saline (as a placebo) in random order to 5 patients (cases 9-12, 14). All other patients received only β-endorphin acetate, without placebo.
For the purpose of comparison, β-endorphin acetate was injected intramuscularly (cases 18-20), intravenously (cases 16 and 17), and intracerebrally (cases 20-23).
In this test, all the injections of β-endorphin to patients were sterilized through Millipore filter.

[3] = epidural space, 3 mg acetate in 3 ml physiological saline, case 15
[4] = intracerebral (cerebral ventricle), comparison, cases 21-23
[5] = subarachnoid space, 3 mg acetate in 3 ml physiological saline, single patients (cases 9-14)
[6] = subarachnoid space, 3 mg acetate with 150 mg glucose in 3 ml distilled water, single patients (cases 1-8)

For β-Endorphin acetate, the side effects (patient) is given as “induces various undersirable side effects”, the analgesia [1] is given as “no statistically significant analgesia” and the “duration of drowsiness after injection” value ([2]; 12 of 15 patients, subarachnoid or epidural space) is given as 1 to 4 h. The “time until pain disappeared after the injection” value ([2]; 13 of the 15 patients, subarachnoid or epidural space) was 1 to 5 min, the “relief of pain reported” value ([2]; all 15 patients, subarachnoid or epidural space of the spinal cord) was “complete relief of pain” and the arousability ([2]; all the patients, subarachnoid or epidural space) was “easily arousable by verbal stimuli”. The “duration of sleep after injection” value ([2]; case No. 5 (in 40 min. after injection) and case No. 7 (in 10 min. after injection)) was 80 min and 110 min, the “perception of venepuncture and light touch” value ([2]; during the period of pain relief) was “remained intact” and the “abnormalities in the ECG or EEG” value ([2]; during the procedure) was “No abnormalities”. The “Pain relief after β-endorphin, Duration” value [2, 3] was 68 h, the “Pain relief after β-endorphin, Onset” value [2, 3] was 2 min and the Remarks ([2]; epidural space, 3 mg acetate in physiological saline, case 15) was “Sleep”. The “duration of relief of pain” value ([2]; injected into cerebral ventricle, all 3 patients) was 8 to 12 h, the “Pain relief after β-endorphin, Duration” value [2, 4] was 10 h and 12 h and 8 h and the “Pain relief after β-endorphin, Onset” value [2, 4] was 3 min and 4 min. The analgesic effect ([2]; intramuscular, 2 of 3 patients) was “no analgesic effect”, the analgesic effect ([2]; intravenous, one of 2 patients) was “no analgesic effect” and the “duration of analgesic effect” value ([2]; intravenous, the other of 2 patients, considered to be placebo effect) was “one”. The “duration of pain relief after the injection, average” value ([2]; subarachnoid or epidural space) was 33.4 h, the “signs of respiratory depression, arterial blood-gas changes, nausea, hypotension, hypothermia, catatonia, or muscle rigidity” value ([2]; subarachnoid or epidural space) was “No signs” and the “discomfort caused by the injection” value ([2]; subarachnoid or epidural space, all the patients) was “no discomfort”. The “Pain relief after β-endorphin, Duration” value [2, 5] was 24 h. and 25 h. and 47 h. and 731/2 and 51 h. and 221/2, the “Pain relief after β-endorphin, Onset” value [2, 5] was 16 min and 2 min and the Remarks ([2]; subarachnoid space, 3 mg acetate in physiological saline, single patients (cases 9-14)) was “Sleep; also recorded: Euphoria; also recorded: somnolence”. For the same substance, the “Pain relief after β-endorphin, Duration” value [2, 6] was 27 h. and 271/2 and 261/2 and 291/2 and 24 h. and 36 h. and 251/2 and 281/2, the “Pain relief after β-endorphin, Onset” value [2, 6] was 5 min and 4 min and 1 min and 2 min and the Remarks ([2]; subarachnoid space, 3 mg acetate with glucose, single patients (cases 1-8)) was “Somnolence; also recorded: Sleep; also recorded: somniloquy; also recorded: Euphoria”. The “duration of sleep after injection” value ([2]; the other 6 of the 8 patients who slept) was 60 to 120 min.
